Experiment [1] deals with prostate carcinoma cell line (DU145). Description: EZ-Cytox cell viability assay, prostate carcinoma cell line (DU145). Particulars: Homo sapiens, DU-145; DU145, 50 μg/mL, 24 h, non-treated = 100. Type of experiment: cell-based. How it is done: (§1) To investigate the cancer cell inhibitory effect of the compounds of formulae 1 and 2 obtained by the preparation method according to the present invention, experiment was conducted. EZ-Cytox cell viability assay kit (Daeil Lab, Korea) was used to measure cancer cell growth inhibitory activity, and prostate carcinoma cell line (DU145), cervical carcinoma cell line (Hela), colon carcinoma cell line (SW480), and lung carcinoma cell line (H460) were used for cancer cells. All the cancer cells were incubated in 96-well plate at concentration of 5×10^4 cells/mL. After 24 h, dehydrosilybin compound of formula 1 and apigenin compound of formula 2 according to the present invention, and starting substance (i.e., silybin) as a control were treated at concentration of 50 μg/mL. After culturing at 37° C., 5% carbon dioxide environment, 24 h, 10 μL of kit solution was treated in each well. After 3 h of additional culturing, the optical absorbance was measured at 480 nm. The result is listed in Tables 3 to 6 and illustrated in FIGS. 2 to 7.

Experiment [2] concerns cervical carcinoma cell line (Hela). Description: EZ-Cytox cell viability assay, cervical carcinoma cell line (Hela). In kind it is cell-based. Particulars: Homo sapiens, 50 μg/mL, 24 h, non-treated = 100. How it is done:
as §1

The test system of experiment [3] is colon carcinoma cell line (SW480). As to the kind of experiment: EZ-Cytox cell viability assay, colon carcinoma cell line (SW480). The conditions noted are these: Homo sapiens; SW480, 50 μg/mL, 24 h, non-treated = 100. In kind it is cell-based. On the procedure: as §1
The subject of experiment [4] is lung carcinoma cell line (H460). Description: EZ-Cytox cell viability assay, lung carcinoma cell line (H460). In kind it is cell-based. Particulars: Homo sapiens, NCI-H460; H460, 50 μg/mL, 24 h, non-treated = 100. How it is done: as §1
For experiment [5], the system named is colon carcinoma cell line (SW620). As to the kind of experiment: EZ-Cytox cell viability assay, colon carcinoma cell line (SW620). In kind it is cell-based. Particulars: Homo sapiens, SW-620; SW620, 50 μg/mL, 24 h, non-treated = 100.
Experiment [6] deals with lung carcinoma cell line (A549). As to the kind of experiment: EZ-Cytox cell viability assay, lung carcinoma cell line (A549). In kind it is cell-based. Particulars: Homo sapiens; A549, 50 μg/mL, 24 h, non-treated = 100.
The next experiment has as its system various cancers. Particulars: background statement; cited from earlier work.

On to `COc1cc(C2Oc3cc(-c4oc5cc(O)cc(O)c5c(=O)c4O)ccc3OC2CO)ccc1O` (stereo not shown) [Compound of formula 1], for which the viability at 50 µg/mL in experiment [1] is 40.4%; in experiment [2] it was 21.1%; in experiment [3], 41.7%; in experiment [4], 66.3%; in experiment [5] it was 27.8%; in experiment [6], 58.9%.

With `O=c1cc(-c2ccc(O)cc2)oc2cc(O)cc(O)c12` [Compound of formula 2, 5,7-dihydroxy-2-(4-hydroxyphenyl)-4H-chroman-4-one], the viability at 50 µg/mL in experiment [1] is 51.6%; in experiment [2] it was 38.7%; in experiment [3], 49.2%; in experiment [4] it was 97.4%; in experiment [5], 39.4%; in experiment [6], 72.1%. In addition, the “concentration at which apigenin can effectively act (anticancer activity)” value in the experiment with various cancers was < 50 µM.

(Values after patent US8658000B2, “Preparation method of apigenin and dehydrosilybin mixture using radiation” (Korea Atomic Energy Research Institute, priority 2011, dated 2014).)
